Test results taken from patent publication US20070015937A1, “PROCESS FOR RECOVERY OF FLUORINATED CARBOXYLIC ACID SURFACTANTS FROM EXHAUST GAS” (priority 2005, published 2007).
Marks after values point to notes of the source that are not given here.

Assay: Determination of bio-accumulation: urinary clearance pharmacokinetic study in rats
Conditions: oral gavage; for Compound-related Effects: clinical signs of toxicity and gross necropsy at 96 hours post-dose
[1] = recovery of administered amount in urine after 96 h, 73 micro Moles per kg body weight, N=3
[2] = renal half-life, 73 micro Moles per kg body weight, N=3, urine by fluorine NMR, exponential least squares curve fitting
[3] = no parent compound observed in the urine, based on elimination of the major metabolite C3F7—O—CHFCOO−, 73 micro Moles per kg

Compound | % Recovery (96 h) [1] | T½ [2] | % Recovery (96 h) [3] | T½ (h) [3] | Compound-related Effects (73 micro Moles per kg) | T½ (h) [2]
N.O=C(O)C(F)(F)C(F)(F)OC(F)(F)F [Compound 6, CF3—O—CF2—CF2—COONH4] | 100% | 11 h | – | – | – | –
N.O=C(O)C(F)(F)OC(F)(F)C(F)(F)C(F)(F)OC(F)(F)F [Compound 1, CF3—O—(CF2)3—O—CF2—COONH4] | 73% | – | – | – | – | –
N.O=C(O)C(F)(F)OC(F)(F)OC(F)(F)OC(F)(F)F [Compound 3, CF3—OCF2—OCF2—OCF2—COONH4] | 100% | 12 h | – | – | – | –
N.O=C(O)C(F)(F)OC(F)(F)OC(F)(F)F [Compound 2, CF3—OCF2—O—CF2—COONH4] | 96% | 12 h | – | – | – | –
N.O=C(O)C(F)(F)OC(F)(F)C(F)(F)C(F)(F)F [Compound 5, C3F7—O—CF2—COONH4] | 97% | 11 h | – | – | – | –
N.O=C(O)C(F)(F)OC(F)(F)C(F)(F)C(F)(F)OC(F)(F)F [Compound 4, CF3—(OCF2)3—OCF2—COONH4] | 50% | – | – | – | – | –
N.O=C(O)C(F)(F)OC(F)(F)C(F)(F)OC(F)(F)C(F)(F)F [Compound 10, C2F5—O—CF2—CF2—O—CF2—COONH4] | 99% | 10 h | – | – | – | –
N.O=C(O)C(F)(F)C(F)(F)C(F)(F)C(F)(F)C(F)(F)C(F)(F)C(F)(F)F [Compound C-1, C7F15COONH4, reference compound] | 6% | – | – | – | Hepatomegaly | ˜550 h

More lines, main results first:

% Recovery (96 h) [1] | T½ [2] | % Recovery (96 h) [3] | T½ (h) [3] | Compound | Compound-related Effects (73 micro Moles per kg) | T½ (h) [2]
42% | 31 h | – | – | N.O=C(O)C(F)(F)C(F)(F)OC(F)(F)C(F)(F)C(F)(F)C(F)(F)F [Compound 9, C4F9—O—CF2—CF2—COONH4] | Hepatomegaly | –
5% | 95 h | – | – | CF3CF2CF2OCF(CF3)CF2OCF2COONH4 [Compound C-3, reference compound] | Hepatomegaly | –
100% | 10 h | – | – | N.O=C(O)C(F)(F)C(F)(F)OC(F)(F)C(F)(F)F [Compound 7, C2F5—O—CF2—CF2—COONH4] | – | –
95% | 8 h | – | – | N.O=C(O)C(F)(F)C(F)(F)C(F)(F)OC(F)C(F)(F)F (centres unmarked) [Compound 15, CF3—CFH—O—(CF2)3—COONH4] | – | –
32% | 24 h | – | – | N.O=C(O)C(F)(F)C(F)(F)C(F)(F)C(F)(F)C(F)(F)OC(F)C(F)(F)F (centres unmarked) [Compound 14, CF3—CFH—O—(CF2)5—COONH4] | Hepatomegaly | –
95% | 11 h | – | – | N.O=C(O)C(F)OC(F)(F)C(F)(F)C(F)(F)OC(F)(F)F (centres unmarked) [Compound 12, CF3—O—CF2—CF2—CF2—O—CHF—COONH4] | – | –
– | – | 65* % | 13* h | N.O=C(O)COC(F)(F)C(F)OC(F)(F)C(F)(F)C(F)(F)F (centres unmarked) [Compound 16, C3F7—O—CFH—CF2—O—CH2—COONH4] | – | –
82% | 12 h | – | – | N.O=C(O)C(F)(F)C(F)(F)OC(F)(F)C(F)(F)C(F)(F)F [Compound 8, C3F7—O—CF2—CF2—COONH4] | – | –
94% | 11 h | – | – | N.O=C(O)C(F)(F)C(F)OC(F)(F)C(F)(F)C(F)(F)F (centres unmarked) [Compound 13, C3F7—O—CFH—CF2COONH4] | – | –
84% | 12 h | – | – | N.O=C(O)C(F)(F)C(F)OC(F)(F)C(F)(F)C(F)(F)OC(F)(F)F (centres unmarked) [Compound 11, CF3—O—CF2—CF2—CF2—O—CHF—CF2—COONH4] | – | –
